The experiment has as its target Ciona intestinalis Ci-VSP cytoplasmic domain (phosphatase domain, residues 248-576 of Ci-VSP, SEQ ID NO: 2), wild type, GST fusion protein (GST-Ci-VSP) (Ciona intestinalis, UniProt Q4W8A1). Description: Malachite green assay of phosphoinositide phosphatase activity at various PIP3 concentrations, Michaelis-Menten fit. In kind it is biochemical. Conditions: substrate PIP3, initial rate V0 at t=0, Michaelis-Menten fit (FIG. 4c). As for the experimental part: To express N-terminal fused protein of the cytoplasmic domain of Ci-VSP with the GST gene, the cDNA encoding residues 248-576 of Ci-VSP was subcloned into the EcoRI-XhoI site of pGEX4T3 (Amersham Pharmacia). GST-fused protein was expressed and purified from E. coli JM109 with glutathione-sepharose CL-4B (Amersham Pharmacia). Phosphatase activity of Ci-VSP was measured with the methods previously adopted for PTEN phosphatase.
To see whether the Ci-VSP has phosphatase activity that uses PI(3, 4, 5)P3 as a substrate, a fusion protein of GST and the whole C-terminal cytoplasmic region of Ci-VSP was synthesized. FIG. 3b represents phosphoinositide phosphatase activity of the fusion protein of glutathione s-transferase and the phosphatase-like domain of Ci-VSP by a malachite green assay using PI(3, 4, 5)P3 as a substrate. […] BIOMOL GREEN™ reagent (Biomol, Plymouth Meeting, Pa.) was added to the sample and […] was measured by using H2O as a reference. […]
Enzyme activity of Ci-VSP was examined with thin layer chromatography (TLC). […] Where there is enzyme activity using PI(3, 4, 5)P3 as a substrate, the degraded product PIP2(NBD6-diC6-PI(4, 5)P2) is detected. […]
Malachite green imparts pale yellow in the absence of inorganic phosphate. […] Thus, by measuring absorbance of malachite green at 620 nm, the inorganic phosphate that is generated by the degradation of PI(3, 4, 5)P3 to PI(4, 5)P2 can be quantified. […]

Ciona intestinalis Ci-VSP cytoplasmic domain (phosphatase domain, residues 248-576 of Ci-VSP, SEQ ID NO: 2), wild type, GST fusion protein (GST-Ci-VSP), sequence (Q4W8A1 entry or part of it): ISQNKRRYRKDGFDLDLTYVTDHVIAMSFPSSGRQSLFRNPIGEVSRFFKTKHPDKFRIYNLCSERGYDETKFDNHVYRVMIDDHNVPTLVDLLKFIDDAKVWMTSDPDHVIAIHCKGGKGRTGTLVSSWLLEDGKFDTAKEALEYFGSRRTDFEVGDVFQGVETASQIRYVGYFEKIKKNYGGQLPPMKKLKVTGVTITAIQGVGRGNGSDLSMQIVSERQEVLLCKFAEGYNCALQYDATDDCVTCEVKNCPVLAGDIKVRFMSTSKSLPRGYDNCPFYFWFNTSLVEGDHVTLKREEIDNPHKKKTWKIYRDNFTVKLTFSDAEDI

Regarding PIP3, the “Vmax (maximum rate)” value was 0.292 nmol/min/µg. In addition, the Km (read-out: Km (substrate concentration required for 1/2 Vmax)) was determined as 36 µM.

The record behind these values is patent US7592424B2, “Ion channel-like polypeptide and use thereof” (Kyoto University, priority 2004, dated 2009).
